# Tested on: 5-alpha-reductases
# Test: 5-alpha-reductase inhibition
# Assay type: biochemical
# Conditions: at a workable concentration of 9 μg/ml; FIG. 4
compound,measurement,value
CC(C)(C)NC(=O)[C@H]1CC[C@H]2[C@@H]3CC[C@H]4NC(=O)C=C[C@]4(C)[C@H]3CC[C@]12C [Finasteride],inhibition of 5-alpha-reductase,≤ 13%

# Reference: patent publication US20080286387A1, “Standardized method for recovering enriched Indian date extract (IDE), properties of IDE and applications thereof” (priority 2007, published 2008)
